Laboratory results published in ChEMBL document CHEMBL5620406, “Synthesis and biological evaluation of novel pyrazole amides as potent mitochondrial complex I inhibitors” (Eur J Med Chem, 2023).
Active and inactive are the calls of the source. The calls are words filed in the database; no cut-off is given here.

What was measured:
[1] = organism: Homo sapiens; assay: Inhibition of mitochondrial complex I (unknown origin) at 1 uM incubated for 15 mins by microplate reader analysis relative to control
[2] = Inhibition of mitochondrial complex I (unknown origin) incubated for 15 mins by microplate reader analysis; set-up: species or system Homo sapiens
[3] = tested on: NCM460; assay: Antiproliferative activity against human NCM460 cells assessed as inhibition of cell growth incubated for 96 hrs by MTT assay; assay type: functional, cell-based; conditions: NCM460, 96 h
[4] = tested on: HCT-116; assay: Antiproliferative activity against human HCT-116 cells assessed as inhibition of cell growth incubated for 96 hrs by MTT assay; assay type: functional, cell-based; conditions: HCT-116, 96 h
[5] = tested on: KG-1; assay: Antiproliferative activity against human KG-1 cells assessed as inhibition of cell growth incubated for 96 hrs by MTT assay; assay type: functional, cell-based; conditions: KG-1, 96 h
[6] = tested on: KG-1; assay: Induction of ROS generation in human KG-1 cells at 32 nM measured for 30 mins by DCFDA-staining based flow cytometry analysis; assay type: functional, cell-based
[7] = tested on: HCT-116; assay: Induction of mitochondrial membrane potential depolarization in human HCT-116 cells at 2 nM incubated for 24 hrs by JC-1 staining based flow cytometry analysis; assay type: functional
[8] = Apparent permeability across apical to basolateral side in human Caco-2 cells incubated for 120 mins by LC-MS/MS analysis; assay type: ADME, cell-based
[9] = Apparent permeability across basolateral side to apical in human Caco-2 cells incubated for 120 mins by LC-MS/MS analysis; assay type: ADME, cell-based
[10] = Efflux ratio of apparent permeability across basolateral to apical membrane to apical to basolateral membrane in human Caco-2 cells incubated for 120 mins by LC-MS/MS analysis; assay type: ADME, cell-based

SMILES | inhibition [1] [%] | further results
Cc1ccc(NC(=O)c2cc(C)n(Cc3cccc(N4CCN(C(=O)C5CC5)CC4)c3)n2)cc1 | 7.73 | 
Cc1ccccc1Cn1nc(C(=O)Nc2ccc(OC(F)(F)F)cc2)cc1C | 1.7 | 
Cc1cc(C(=O)Nc2ccc(OC(F)(F)F)cc2)nn1Cc1ccc2ccccc2c1 | 4.6 | 
Cc1cc(C(=O)Nc2ccc(OC(F)(F)F)cc2)nn1Cc1cccc(N2CCN(S(C)(=O)=O)CC2)c1 | 50.4 | IC50 [2]: 1060 nM
Cc1nc(-c2nc(-c3ccc(OC(F)(F)F)cc3)no2)nn1Cc1cccc(N2CCC(S(C)(=O)=O)CC2)c1 | 32.7 | IC50 [3]: > 1000 nM; IC50 [2]: 115000 nM; IC50 [4]: 9.63 nM; IC50 [5]: 63.8 nM; Activity [6]: Active; Activity [7]: 21.1%; Papp A→B at 2 h [8]: 4.86 ×10⁻⁶ cm/s; Papp B→A at 2 h [9]: 3.33 ×10⁻⁶ cm/s; efflux ratio at 2 h [10]: 0.68
CS(=O)(=O)C1CCN(c2cccc(Cn3nc(C(=O)Nc4ccc(OC(F)(F)F)cc4)c4c5nn(c6c5COCC6)c43)c2)CC1 | 13.2 | IC50 [2]: 101000 nM
Cc1cc(C(=O)Nc2ccc(OC(F)(F)F)cc2)nn1Cc1ccc(N2CCC(S(C)(=O)=O)CC2)cc1 | 3.85 | 
COc1cc(Cn2nc(C(=O)Nc3ccc(OC(F)(F)F)cc3)cc2C)cc(OC)c1 | 2.05 | 
C=C(C)[C@H]1Cc2c(ccc3c2O[C@@H]2COc4cc(OC)c(OC)cc4[C@@H]2C3=O)O1 | 71.8 | 
COc1ccc(NC(=O)c2cc(C)n(Cc3cccc(N4CCN(C(=O)C5CC5)CC4)c3)n2)cc1 | 5.23 | 
CS(=O)(=O)C1CCN(c2cccc(Cn3nc(C(=O)Nc4ccc(OC(F)(F)F)cc4)cc3-c3ccccc3)c2)CC1 | 36.3 | IC50 [2]: 1410 nM
Cc1cc(C(=O)Nc2ccccc2OC(F)(F)F)nn1Cc1cccc(N2CCN(C(=O)C3CC3)CC2)c1 | 1.87 | 
COc1ccccc1-c1cccc(Cn2nc(C(=O)Nc3ccc(OC(F)(F)F)cc3)cc2C)c1 | 3.57 | 
Cc1cc(C(=O)Nc2ccc(OC(F)(F)F)cc2)nn1Cc1cccc(-c2ccccc2O)c1 | 25.6 | 
COc1ccc(NC(=O)c2cc(C)n(Cc3cccc(N4CCN(C(=O)C5CC5)CC4)c3)n2)cc1OC | 4.85 | 
Cc1cc(C(=O)Nc2ccc(OC(F)(F)F)cc2)nn1Cc1cccc(N2CCC(S(C)(=O)=O)CC2)c1 | 49.7 | IC50 [2]: 960 nM
Cc1cc(C(=O)Nc2cc(F)cc(F)c2)nn1Cc1cccc(N2CCN(C(=O)C3CC3)CC2)c1 | 9.58 | 
Cc1cc(C(=O)Nc2cccc(F)c2)nn1Cc1cccc(N2CCN(C(=O)C3CC3)CC2)c1 | 1.54 | 
CS(=O)(=O)C1CCN(c2cccc(Cn3ccc(C(=O)Nc4ccc(OC(F)(F)F)cc4)n3)c2)CC1 | 26.6 | 
Cc1cc(C(=O)Nc2ccc(OC(F)(F)F)cc2)nn1Cc1cccc(-c2ccc(S(C)(=O)=O)cc2)c1 | 52.5 | IC50 [2]: 860 nM
Cc1cc(C(=O)Nc2cccc(OC(F)(F)F)c2)nn1Cc1cccc(N2CCN(C(=O)C3CC3)CC2)c1 | 3.1 | 
Cc1ccc(Cn2nc(C(=O)Nc3ccc(OC(F)(F)F)cc3)cc2C)cc1 | 8.06 | 

SMILES | inhibition [1] [%] | further results
Cc1cc(C(=O)Nc2ccc(OC(F)(F)F)cc2)nn1Cc1ccccc1 | 1.03 | 
Cc1cc(C(=O)Nc2ccc(OC(F)(F)F)cc2)nn1Cc1cccc(Br)c1 | 1.54 | 
Cc1cc(C(=O)Nc2ccc(OC(F)(F)F)cc2)nn1Cc1cccnc1 | 1.37 | 
CS(=O)(=O)C1CCN(c2cccc(Cn3nc(C(=O)Nc4ccc(OC(F)(F)F)cc4)c4c5nn(c6ccccc56)c43)c2)CC1 | 1.12 | IC50 [2]: 91300 nM
Cc1cc(C(=O)Nc2ccc(Cl)c(F)c2)nn1Cc1cccc(N2CCN(C(=O)C3CC3)CC2)c1 | 11.1 | 
Cc1cc(C(=O)Nc2ccccc2)nn1Cc1cccc(N2CCN(C(=O)C3CC3)CC2)c1 | 7.12 | 
Cc1cc(C(=O)Nc2ccc(F)cc2)nn1Cc1cccc(N2CCN(C(=O)C3CC3)CC2)c1 | 8.24 | 
Cc1ccc(NC(=O)c2cc(C)n(Cc3cccc(N4CCN(C(=O)C5CC5)CC4)c3)n2)cc1F | 3.49 | 
Cc1cc(C(=O)Nc2ccc(OC(F)(F)F)cc2)nn1Cc1cccc(N2CCS(=O)(=O)CC2)c1 | 6.09 | 
Cc1cc(C)cc(-c2cccc(Cn3nc(C(=O)Nc4ccc(OC(F)(F)F)cc4)cc3C)c2)c1 | 3.73 | 
Cc1cc(C(=O)Nc2ccc(OC(F)(F)F)cc2)nn1Cc1cccc(S(=O)(=O)N2CCOCC2)c1 | 4.42 | 
Cc1cc(C(=O)Nc2ccc(OC(F)(F)F)cc2)nn1Cc1cccc(N(C)C2CCOCC2)c1 | 13.5 | 
CC(C)(C)c1cc(C(=O)Nc2ccc(OC(F)(F)F)cc2)nn1Cc1cccc(N2CCC(S(C)(=O)=O)CC2)c1 | 38.7 | IC50 [2]: 1360 nM
Cc1cc(C(=O)Nc2cccnc2)nn1Cc1cccc(N2CCN(C(=O)C3CC3)CC2)c1 | 16.1 | 
Cc1cc(C(=O)Nc2ccc(OC(F)(F)F)cc2)nn1Cc1ccc(F)c(Br)c1 | 1.32 | 
Cc1cc(C(=O)Nc2ccc(OC(F)(F)F)cc2)nn1Cc1cccc(N2CCOCC2)c1 | 8.94 | 
Cc1cc(C(=O)Nc2ccc(OC(F)(F)F)cc2)nn1Cc1cccc(-c2ccc(C(C)(C)C)cc2)c1 | 29.6 | 
Cc1cc(C(=O)Nc2ccccc2F)nn1Cc1cccc(N2CCN(C(=O)C3CC3)CC2)c1 | 1.72 | 
Cc1cn(Cc2cccc(N3CCC(S(C)(=O)=O)CC3)c2)nc1C(=O)Nc1ccc(OC(F)(F)F)cc1 | 9.43 | 
CS(=O)(=O)C1CCN(c2cccc(Cn3nc(C(=O)Nc4ccc(OC(F)(F)F)cc4)c4c5nn(c6c5CCC6)c43)c2)CC1 | 29.2 | IC50 [2]: 91300 nM
Cc1cccc(NC(=O)c2cc(C)n(Cc3cccc(N4CCN(C(=O)C5CC5)CC4)c3)n2)c1 | 6.44 | 
